Reference: PMC4675670 (Science translational medicine, 2015)

Experiments:
[1] = target: cytoplasmic prolyl-tRNA synthetase (PfcPRS, PF3D7_1213800) (Plasmodium falciparum, UniProt Q8I5R7); assay: biochemical assay on purified recombinant enzyme
[2] = target: cytoplasmic prolyl-tRNA synthetase (PfcPRS, PF3D7_1213800) (Plasmodium falciparum, UniProt Q8I5R7, L482H); assay: biochemical assay on purified recombinant mutant enzyme
[3] = target: human EPRS (bifunctional glutamyl-prolyl-tRNA synthetase) (Homo sapiens, UniProt P07814); assay: biochemical assay
Sequence of human EPRS (bifunctional glutamyl-prolyl-tRNA synthetase) (P07814 whole entry): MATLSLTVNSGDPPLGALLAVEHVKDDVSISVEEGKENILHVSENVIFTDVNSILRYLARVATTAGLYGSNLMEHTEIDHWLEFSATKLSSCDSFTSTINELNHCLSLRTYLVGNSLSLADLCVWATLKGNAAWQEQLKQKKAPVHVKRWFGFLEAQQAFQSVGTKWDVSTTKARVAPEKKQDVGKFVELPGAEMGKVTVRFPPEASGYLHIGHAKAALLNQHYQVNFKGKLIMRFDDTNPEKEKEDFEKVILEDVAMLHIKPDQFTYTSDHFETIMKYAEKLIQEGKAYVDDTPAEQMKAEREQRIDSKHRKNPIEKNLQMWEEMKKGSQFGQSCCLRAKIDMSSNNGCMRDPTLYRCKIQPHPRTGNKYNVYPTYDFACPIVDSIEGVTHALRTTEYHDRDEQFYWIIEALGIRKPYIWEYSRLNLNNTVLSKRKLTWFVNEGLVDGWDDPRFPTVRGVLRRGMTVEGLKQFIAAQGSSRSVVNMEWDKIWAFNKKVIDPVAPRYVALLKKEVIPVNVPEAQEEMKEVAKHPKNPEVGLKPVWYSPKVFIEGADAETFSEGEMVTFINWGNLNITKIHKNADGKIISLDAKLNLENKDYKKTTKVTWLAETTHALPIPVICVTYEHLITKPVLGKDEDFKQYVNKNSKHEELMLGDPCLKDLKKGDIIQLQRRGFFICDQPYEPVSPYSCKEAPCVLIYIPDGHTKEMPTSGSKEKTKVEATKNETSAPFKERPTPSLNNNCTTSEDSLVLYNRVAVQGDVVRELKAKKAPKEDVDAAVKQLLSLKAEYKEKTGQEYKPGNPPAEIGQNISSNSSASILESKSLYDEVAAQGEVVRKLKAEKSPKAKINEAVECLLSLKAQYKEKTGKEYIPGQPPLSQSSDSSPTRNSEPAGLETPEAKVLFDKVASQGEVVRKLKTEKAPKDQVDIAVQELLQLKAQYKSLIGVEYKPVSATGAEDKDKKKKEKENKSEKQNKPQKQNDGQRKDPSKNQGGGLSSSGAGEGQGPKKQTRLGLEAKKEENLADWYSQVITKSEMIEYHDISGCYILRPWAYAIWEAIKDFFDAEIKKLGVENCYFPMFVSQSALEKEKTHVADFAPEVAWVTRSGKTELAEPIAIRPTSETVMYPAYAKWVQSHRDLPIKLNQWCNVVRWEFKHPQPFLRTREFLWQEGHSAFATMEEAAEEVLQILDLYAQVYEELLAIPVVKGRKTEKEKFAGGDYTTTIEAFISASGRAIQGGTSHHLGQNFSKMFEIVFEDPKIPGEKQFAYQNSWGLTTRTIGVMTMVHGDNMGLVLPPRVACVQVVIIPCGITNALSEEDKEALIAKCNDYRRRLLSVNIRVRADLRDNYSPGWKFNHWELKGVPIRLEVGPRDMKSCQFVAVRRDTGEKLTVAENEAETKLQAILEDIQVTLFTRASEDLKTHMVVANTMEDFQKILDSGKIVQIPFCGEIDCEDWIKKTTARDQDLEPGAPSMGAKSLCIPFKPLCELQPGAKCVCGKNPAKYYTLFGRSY

O=c1c2cc(Cl)c(Br)cc2ncn1C[C@@H](O)C[C@H]1NCCC[C@@H]1O [halofuginol]
Ki [1]: 71.1 nM | Ki [2]: 1120 nM | Ki [3]: 65.7 nM
